Two substances from US7727550B2, “Biologically active native biomatrix composition” (The UAB Research Foundation, priority 2003, dated 2010) can be followed below.

Test [1] has as its system human umbilical vascular endothelial cells (HUVEC). The test can be described thus: HUVEC culture on two-dimensional biomatrix environments. In kind it is cell-based. The settings on record: FGF 15 ng/ml, two-dimensional HuBiogel matrix. As for the experimental part: […] The specific morphological changes in the monolayer HUVEC cultures was examined after 72 hrs incubation on each biomatrix environment. HUVECs cultured on plastic or purified collagen I grew poorly (<60% viability). […] Tubular capillary formation is confirmed by cross-sectional electron microscopy showing distinct lumen.

A further test relates to HUVEC. The test can be described thus: HUVEC migration and differentiation in three-dimensional HuBiogel disc culture system. In kind it is cell-based, human. The settings on record: FGF 60 ng/ml added day 0, 5 mg/ml HuBiogel disc, 50 um pore size. The procedure:
Endothelial cells were cultured under standard conditions. On day 0, FGF (60 ng/ml) was added to the culture and incubation continued. At the indicated times, cell morphology was examined and documented. […] There is no differentiation of the cells until the day 5-day 7 time period. After day 7, obvious differentiation as indicated by sprout formation/capillary formation can be seen. […] Such a temporally discrete timing of the activation migration and differentiation steps make the use of this system ideal for studying the biochemical mechanisms involved in each step, as well as isolating potential inhibitors of the mechanisms identified. This time dependent, temporally isolated sequence of events is in contrast to that seen with Matrigel, where differentiation events occur rapidly in the absence of added growth factors and/or growth stimulants.

In test [2] the test system is mesenchymal stem cells (MSC). As to the kind of experiment: Mesenchymal stem cell culture on HuBiogel. In kind it is cell-based. The settings on record: NGF 15 ng/ml. As for the experimental part:
Other cell type may also be grown on HuBiogel™ matrices, with the above being exemplary in nature only. Theses other cell types include neurons, hepatocytes, sertoli cells and the like. For Example, FIGS. 11A and B show glioma cells cultured on HuBiogel™ containing matrices. […] FIGS. 12A and B show mesenchymal stem cells (MSC) cells cultured on HuBiogel™ in the presence (FIG. 12B) and absence of 15 ng/ml NGF (FIG. 12A).

For “FGF: fibroblast growth factor, purified angiogenic factor added to HuBiogel”, the “HUVEC differentiation on HuBiogel enriched with growth factor” value in test [1] is reported as “rapid formation of tubule-like structures”. Further, the “growth factor induced HUVEC activation, migration and differentiation” value in the test on HUVEC was “induced a time dependent series of cellular activation, migration and differentiation steps”.

NGF: nerve growth factor: in test [2], the “neuronal differentiation of MSC on HuBiogel” value was “neuronal differentiation occurred only in the presence of NGF”.
